What was measured:
[1] = test system: DENV-R2A (Rluc-expressing DENV, serotype 2 strain 16681); experiment: microbe, parasite or virus in culture; format: cell-based, Dengue virus; settings: Dengue virus, Huh7.5, 48 h, read-out: DENV-R2A replication (fold DMSO) Mean, deconvolution screen, singletons, 50 µM, Huh7.5, 2 days postinfection
Huh7.5 cells = experiment: Cell viability, CellTiter-Glo luminescent assay; settings: deconvolution screen, singletons, 50 µM, uninfected Huh7.5
[2] = test system: ZIKV-R2A (strain FSS13025); experiment: microbe, parasite or virus in culture; format: cell-based; settings: Zika virus, Huh7.5, 48 h, read-out: ZIKV-R2A replication (fold DMSO) Mean

| SMILES | activity at 50 µM [1] [%] | Cell viability (fold DMSO) Mean (Huh7.5 cells) [fold DMSO] | activity at 50 µM [2] [%] |
| --- | --- | --- | --- |
| Cn1cncc1C(=O)O [AS-5483, Cn1cncc1C(=O)O] | 99 | 1.12 | 99 |
| Clc1ccc(N2CCNCC2)nc1 [AS-5607, Clc1ccc(nc1)N2CCNCC2] | 76 | 1.13 | 81 |
| COC(=O)[C@H]1CCC(=O)N1 [AS-7023, COC(=O)[C@H]1CCC(=O)N1] | 102 | 1.19 | 103 |
| OCc1c[nH]c(-c2ccccc2)n1 [CB-0713, OCc1c[nH]c(n1)c2ccccc2] | 92 | 1.02 | 100 |
| CC(=O)c1ccccc1-n1ccnc1 [Compound 1B-028, CC(=O)c1ccccc1n2ccnc2] | 59 | 0.78 | 58 |
| NC(=O)c1ccco1 [Compound 2B-052, NC(=O)c1occc1] | 98 | 1.17 | 112 |
| CC1CCN(Cc2ccc(Cl)nc2)CC1 [Compound 2X-0836, CC1CCN(Cc2ccc(Cl)nc2)CC1] | 89 | 1.16 | 104 |
| c1ccn(-c2cnccn2)c1 [Compound 6N-039, c1ccn(c1)c2cnccn2] | 95 | 0.93 | 99 |
| O=C1CCC(c2ccccc2)=NN1 [Compound 7L-571S, O=C1CCC(=NN1)c2ccccc2] | 107 | 0.99 | 124 |
| Cc1cnn2c(C3CC3)ccnc12 [Compound 7T-0305, Cc1cnn2c(ccnc12)C3CC3] | 108 | 1.06 | 111 |
| Clc1ncc(CN2CCCCC2)s1 [Compound 8N-010, Clc1ncc(CN2CCCCC2)s1] | 101 | 0.95 | 111 |
| Clc1ncc(Cn2ccnc2)s1 [Compound 8P-013, Clc1ncc(Cn2ccnc2)s1] | 104 | 0.94 | 118 |
| CC(=O)c1ccc2cc(O)ccc2c1 [Compound 8X-0242, CC(=O)c1ccc2cc(O)ccc2c1] | 86 | 1.00 | 81 |
| N#CCC(=O)Nc1ccccc1 [Compound 9B-046, O=C(CC#N)Nc1ccccc1] | 96 | 1.17 | 104 |
| NC(=O)NCc1cccc(Cl)c1 [Compound 9M-050, NC(=O)NCc1cccc(Cl)c1] | 100 | 1.27 | 110 |
| CNC(=O)c1cn(C)c2ccccc12 [Compound 9T-1495, CNC(=O)c1cn(C)c2ccccc12] | 103 | – | 98 |
| Cc1cc(C)n2ccnc2c1 [Compound 9X-0854, Cc1cc(C)n2ccnc2c1] | 94 | 1.21 | 98 |
| Cc1onc(-c2ccccc2)c1C#N [Compound 10B-058, Cc1onc(c2ccccc2)c1C#N] | 102 | 0.98 | 106 |
| CN1C(=O)Cc2ccccc2C1=O [Compound 10L-733, CN1C(=O)Cc2ccccc2C1=O] | 101 | 0.94 | 114 |
| OCc1cc2c(cc1Br)OCO2 [Compound 10P-113, OCc1cc2OCOc2cc1Br] | 86 | 0.88 | 103 |
| CC(=O)c1cc(Br)cs1 [Compound 10X-0139, CC(=O)c1cc(Br)cs1] | 98 | 1.20 | 108 |
| CC(C)(C)OC(=O)N1CCCCn2nc(CO)cc2C1 [Compound 10X-0603, CC(C)(C)OC(=O)N1CCCCn2nc(CO)cc2C1] | 106 | 1.07 | 104 |
